Source: a polymer gas permeability compilation

SMILES | CH4 permeability [Barrer] | CO2 permeability [Barrer] | H2 permeability [Barrer] | N2 permeability [Barrer] | O2 permeability [Barrer]
*/C(C)=C(/*)[Si](C)(C)CCCCCCCC (repeat unit) | 13 | 100 | 47 | 19 | 23
*C(=C(*)c1ccc2c(c1)C1(CC1)c1ccccc1-2)c1ccc([Si](C)(C)C)cc1 (repeat unit) | 1500 | 4100 | 1900 | 540 | 1000
*C(=C(*)c1ccc2c(c1)C1(CC1)c1ccccc1-2)c1ccccc1 (repeat unit) | 810 | 3200 | 1400 | 400 | 660
*C(=C(*)c1ccc2c(ccc3ccccc32)c1)c1ccc([Si](C)(C)C)cc1 (repeat unit) | 500 | 2100 | 900 | 190 | 460
*c1ccc(Oc2ccc(-n3c(=O)c4cc5sc6cc7c(=O)n(*)c(=O)c7cc6sc5cc4c3=O)cc2)cc1 (repeat unit) | 0.082 | 4 | 11 | 0.11 | 0.74
*c1ccc(Oc2ccc(C(*)(c3ccccc3)C(F)(F)F)cc2)cc1 (repeat unit) | 0.65 | 17 | 28 | 0.69 | 3.5
*c1ccc(Oc2ccc(C(c3ccc(Oc4ccc(-n5c(=O)c6cc7c(=O)n(*)c(=O)c7cc6c5=O)cc4C(F)(F)F)cc3)(C(F)(F)F)C(F)(F)F)cc2)c(C(F)(F)F)c1 (repeat unit) | 0.937 | 24.6 | 50.4 | 1.5 | 7.06
*c1ccc(Oc2ccc(N3C(=O)c4cc5c(cc4C3=O)S(=O)(=O)c3cc4c(cc3S5(=O)=O)C(=O)N(*)C4=O)cc2)cc1 (repeat unit) | 0.18 | 9.6 | 19 | 0.27 | 1.6
*c1ccc(Oc2ccc(Oc3ccc(*)cc3)c3c2C2c4ccccc4C3c3ccccc32)cc1 (repeat unit) | 0.21 | 13.5 |  | 0.58 | 3.4
*c1ccc(Oc2ccc(S(=O)(=O)c3ccc(Oc4ccc(S(*)(=O)=O)cc4)cc3)cc2)cc1 (repeat unit) | 0.13 | 2.88 | 8.35 | 0.13 | 0.83
*c1ccc(Oc2cccc(-n3c(=O)c4cc5c(=O)n(*)c(=O)c5cc4c3=O)c2)cc1 (repeat unit) | 0.0258 | 1.15 | 5.92 | 0.0454 | 0.31
*c1ccc(S(=O)(=O)c2ccc(N3C(=O)c4ccc(-c5ccc6c(c5)C(=O)N(*)C6=O)cc4C3=O)cc2)cc1 (repeat unit) | 0.0625 | 2.16 | 11.3 | 0.0499 | 0.348
*c1ccc(Sc2ccc(N3C(=O)c4ccc(-c5ccc6c(c5)C(=O)N(*)C6=O)cc4C3=O)cc2)cc1 (repeat unit) | 0.0164 | 0.774 |  | 0.022 | 
*c1ccc2c(-c3c(O)ccc4cc(N5C(=O)c6ccc(C(c7ccc8c(c7)C(=O)N(*)C8=O)(C(F)(F)F)C(F)(F)F)cc6C5=O)ccc34)c(O)ccc2c1 (repeat unit) | 0.09 | 4.32 | 5.95 | 0.14 | 0.98
*c1ccc2c(-c3c(O)ccc4cc(N5C(=O)c6ccc(Oc7ccc8c(c7)C(=O)N(*)C8=O)cc6C5=O)ccc34)c(O)ccc2c1 (repeat unit) | 0.03 | 1.87 | 2.72 | 0.05 | 0.35
*c1ccc2c(-c3c(OC(C)=O)ccc4cc(N5C(=O)c6ccc(C(=O)c7ccc8c(c7)C(=O)N(*)C8=O)cc6C5=O)ccc34)c(OC(C)=O)ccc2c1 (repeat unit) | 0.08 | 3.55 | 4.67 | 0.15 | 0.92
*c1ccc2c(-c3c(OC(C)=O)ccc4cc(N5C(=O)c6ccc(Oc7ccc8c(c7)C(=O)N(*)C8=O)cc6C5=O)ccc34)c(OC(C)=O)ccc2c1 (repeat unit) | 0.05 | 2.38 | 3.18 | 0.1 | 0.61
*c1ccc2c(c1)-c1nc3ccc(-c4ccc5c(c4)nc4n5C(=O)c5cc(C(c6ccc(-c7nc8cc(C(c9ccc%10oc(-c%11ccc(C(*)(C(F)(F)F)C(F)(F)F)cc%11)nc%10c9)(C(F)(F)F)C(F)(F)F)ccc8o7)cc6)(C(F)(F)F)C(F)(F)F)ccc5-4)cc3n1C2=O (repeat unit) | 46 | 1800 | 1990 | 85 | 421
*c1ccc2c(c1)C1c3ccccc3C2c2cc(N3C(=O)c4ccc(C(c5ccc6c(c5)C(=O)N(*)C6=O)(C(F)(F)F)C(F)(F)F)cc4C3=O)ccc21 (repeat unit) | 7.2 | 202 | 329 | 10.7 | 43.9
*c1ccc2c(c1)Oc1ccc(C3(c4ccc5c(c4)Oc4ccc(*)cc4O5)c4ccccc4-c4ccccc43)cc1O2 (repeat unit) | 0.56 | 26.6 |  | 1.04 | 5.68
*c1ccc2c(c1C)N1Cc3ccc(N4C(=O)c5ccc(C(c6ccc7c(c6)C(=O)N(*)C7=O)(C(F)(F)F)C(F)(F)F)cc5C4=O)c(C)c3N(C2)C1 (repeat unit) | 6.3 | 190 | 322 | 10 | 50

Other lines, results leading:

CH4 permeability [Barrer] | CO2 permeability [Barrer] | H2 permeability [Barrer] | N2 permeability [Barrer] | O2 permeability [Barrer] | SMILES
1.68 | 45.3 |  | 1.78 | 11.7 | *c1ccc(Oc2ccc(-c3ccc(-c4ccc(Oc5ccc(N6C(=O)c7ccc(C(c8ccc9c(c8)C(=O)N(*)C9=O)(C(F)(F)F)C(F)(F)F)cc7C6=O)cc5)c(C(F)(F)F)c4)s3)cc2C(F)(F)F)cc1 (repeat unit)
1.95 | 51.9 |  | 1.91 | 12.2 | *c1ccc(Oc2ccc(-c3cccc(-c4ccc(Oc5ccc(N6C(=O)c7ccc(C(c8ccc9c(c8)C(=O)N(*)C9=O)(C(F)(F)F)C(F)(F)F)cc7C6=O)cc5)c(C(F)(F)F)c4)n3)cc2C(F)(F)F)cc1 (repeat unit)
0.0846 | 2.8 |  | 0.0938 | 0.596 | *c1ccc(Oc2ccc(C(C)(C)c3ccc(Oc4ccc(N5C(=O)c6ccc(-c7ccc8c(c7)C(=O)N(*)C8=O)cc6C5=O)cc4)cc3)cc2)cc1 (repeat unit)
0.279 | 9.15 | 30.6 | 0.563 | 3.11 | *c1ccc(Oc2ccc(C(c3ccc(Oc4ccc(N5C(=O)c6ccc(-c7ccc8c(c7)C(=O)N(*)C8=O)cc6C5=O)cc4C(F)(F)F)cc3)(C(F)(F)F)C(F)(F)F)cc2)c(C(F)(F)F)c1 (repeat unit)
0.515 | 19 | 46.7 | 0.982 | 5.27 | *c1ccc(Oc2ccc(C(c3ccc(Oc4ccc(N5C(=O)c6ccc(C(c7ccc8c(c7)C(=O)N(*)C8=O)(C(F)(F)F)C(F)(F)F)cc6C5=O)cc4)cc3)(C(F)(F)F)C(F)(F)F)cc2)cc1 (repeat unit)
0.703 | 22.8 | 55.4 | 1.3 | 6.5 | *c1ccc(Oc2ccc(C(c3ccc(Oc4ccc(N5C(=O)c6ccc(C(c7ccc8c(c7)C(=O)N(*)C8=O)(C(F)(F)F)C(F)(F)F)cc6C5=O)cc4C(F)(F)F)cc3)(C(F)(F)F)C(F)(F)F)cc2)c(C(F)(F)F)c1 (repeat unit)
0.34 | 11.7 | 47.3 | 0.73 | 3.62 | *c1ccc(Oc2ccc(C3(c4ccc(Oc5ccc(N6C(=O)c7ccc(C(c8ccc9c(c8)C(=O)N(*)C9=O)(C(F)(F)F)C(F)(F)F)cc7C6=O)c(C)c5)cc4)c4ccccc4-c4ccccc43)cc2)cc1C (repeat unit)
0.455 | 16.5 |  | 0.965 | 4.83 | *c1ccc(Oc2ccc(C3(c4ccc(Oc5ccc(N6C(=O)c7ccc(C(c8ccc9c(c8)C(=O)N(*)C9=O)(C(F)(F)F)C(F)(F)F)cc7C6=O)cc5)cc4)OC(=O)c4ccccc43)cc2)cc1 (repeat unit)
1.45 | 44 |  | 1.25 | 4.99 | *c1ccc(Oc2ccc(N3C(=O)c4cc(Oc5ccc(C)cc5)c(-c5cc6c(cc5Oc5ccc(C)cc5)C(=O)N(*)C6=O)cc4C3=O)cc2)cc1 (repeat unit)
0.407 | 20.6 | 44 | 0.797 | 4.21 | *c1ccc(Oc2ccc(N3C(=O)c4ccc(C(c5ccc6c(c5)C(=O)N(*)C6=O)(C(F)(F)F)C(F)(F)F)cc4C3=O)cc2)cc1 (repeat unit)
0.41 | 25.9 | 36.8 | 0.78 | 4.89 | *c1ccc(Oc2ccc3ccccc3c2-c2c(Oc3ccc(N4C(=O)c5ccc(C(c6ccc7c(c6)C(=O)N(*)C7=O)(C(F)(F)F)C(F)(F)F)cc5C4=O)cc3C(F)(F)F)ccc3ccccc23)c(C(F)(F)F)c1 (repeat unit)
0.28 | 18.4 | 26.2 | 0.53 | 3.35 | *c1ccc(Oc2ccc3ccccc3c2-c2c(Oc3ccc(N4C(=O)c5ccc(C(c6ccc7c(c6)C(=O)N(*)C7=O)(C(F)(F)F)C(F)(F)F)cc5C4=O)cc3C)ccc3ccccc23)c(C)c1 (repeat unit)
0.22 | 8.37 |  | 0.37 | 1.72 | *c1ccc(Sc2ccc(Sc3ccc(Sc4ccc(N5C(=O)c6ccc(C(c7ccc8c(c7)C(=O)N(*)C8=O)(C(F)(F)F)C(F)(F)F)cc6C5=O)cc4)cc3)cc2)cc1 (repeat unit)
